According to ChEMBL document CHEMBL6182894, “Design, synthesis, and biological evaluation of quinolinyl-ureido-phenyl-hydrazide derivatives and quinolinyl-hydrazide derivatives as anticancer agents targeting Nur77-mediated ferroptosis” (Eur J Med Chem, 2025):

Tests used:
[1] = biological target: Nuclear receptor subfamily 4immunitygroup A member 1 (Homo sapiens, UniProt P22736); experiment: Binding affinity to Nur77 LB domain (unknown origin) assessed as dissociation constant up to 100 uM by fluorescence titration assay
[2] = test system: MCF7; experiment: Antiproliferative activity against human MCF7 cells assessed as inhibition of cell growth at 50 uM by MTT assay relative to control; type: functional
[3] = test system: HepG2; experiment: Antiproliferative activity against human HepG2 cells assessed as inhibition of cell growth by MTT assay
[4] = test system: MCF7; experiment: cells; settings: Homo sapiens, MCF7, 24 h
Description: Antiproliferative activity against human MCF7 cells assessed as inhibition of cell growth incubated for 24 hrs by MTT assay

[5] = Cytotoxicity in human MCF-10A cells assessed as inhibition of cell growth by MTT assay; type: toxicity, cell-based
[6] = Cytotoxicity in HaCaT cells assessed as inhibition of cell growth by MTT assay; type: toxicity, cell-based; settings: human
[7] = test system: HCT-116; experiment: Antiproliferative activity against human HCT-116 cells assessed as inhibition of cell growth by MTT assay
[8] = test system: T47D; experiment: cells; settings: Homo sapiens, 24 h
Description: Antiproliferative activity against human T47D cells assessed as inhibition of cell growth incubated for 24 hrs by MTT assay

[9] = test system: MDA-MB-231; experiment: cells; settings: Homo sapiens, MDA-MB-231, 24 h
Description: Antiproliferative activity against human MDA-MB-231 cells assessed as inhibition of cell growth incubated for 24 hrs by MTT assay

Sequence of Nuclear receptor subfamily 4immunitygroup A member 1 (P22736 whole entry, the tested form may be a part): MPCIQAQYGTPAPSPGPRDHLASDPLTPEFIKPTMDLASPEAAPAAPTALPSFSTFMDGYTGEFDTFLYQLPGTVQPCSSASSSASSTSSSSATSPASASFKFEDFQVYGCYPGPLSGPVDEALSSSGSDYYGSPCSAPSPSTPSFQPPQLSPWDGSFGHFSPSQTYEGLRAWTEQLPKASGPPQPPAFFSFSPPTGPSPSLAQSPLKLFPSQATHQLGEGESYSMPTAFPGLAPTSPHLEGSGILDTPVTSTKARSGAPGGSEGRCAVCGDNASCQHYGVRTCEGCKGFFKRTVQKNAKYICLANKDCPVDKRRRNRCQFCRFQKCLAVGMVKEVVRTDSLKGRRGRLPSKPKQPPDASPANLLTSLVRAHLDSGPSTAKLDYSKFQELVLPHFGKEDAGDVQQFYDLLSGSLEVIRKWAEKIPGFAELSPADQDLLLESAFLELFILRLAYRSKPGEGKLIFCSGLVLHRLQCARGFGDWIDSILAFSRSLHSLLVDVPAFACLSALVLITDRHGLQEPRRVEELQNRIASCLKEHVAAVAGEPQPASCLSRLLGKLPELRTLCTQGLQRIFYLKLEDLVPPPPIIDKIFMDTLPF

Structure (SMILES) | inhibition at 50 µM [2] [%] | also measured
CCCCCCCC(=O)c1c(O)cc(O)cc1CC(=O)OCC [CYTOSPORONE B] | – | Kd [1]: 15.3 µM
O=C(N/N=C/c1ccc([N+](=O)[O-])cc1)c1ccc2ncccc2c1 | 63.2 | –
O=C(Nc1ccc(C(=O)N/N=C/c2ccco2)cc1)Nc1ccc2ncccc2c1 | 56.2 | –
COc1ccc(/C=N/NC(=O)c2ccc(NC(=O)Nc3ccc4ncccc4c3)cc2)cc1 | 37.7 | –
CCC/C=N/NC(=O)c1ccc2ncccc2c1 | 65.1 | –
O=C(Nc1ccc(C(=O)N/N=C/c2cccs2)cc1)Nc1ccc2ncccc2c1 | 15.1 | –
O=C(Nc1ccc(C(=O)N/N=C/c2ccc(Cl)cc2)cc1)Nc1cccc2ncccc12 | 53.4 | –
O=C(Nc1ccc(C(=O)N/N=C/c2c[nH]c3ccccc23)cc1)Nc1cccc2ncccc12 | 30.2 | –
O=C(N/N=C/c1cccs1)c1cccc2ncccc12 | 45.7 | –
CCC/C=N/NC(=O)c1cccc2ncccc12 | 79.2 | IC50 [3]: 2.75 µM; IC50 [4]: 6.83 µM; IC50 [5]: 39.5 µM; IC50 [6]: 45.7 µM; IC50 [7]: 2.19 µM
Cc1ccccc1/C=N/NC(=O)c1cccc2ncccc12 | 65.3 | –
Cc1ccc(F)cc1/C=N/NC(=O)c1ccc(NC(=O)Nc2cccc3ncccc23)cc1 | 68.3 | –
Cc1cc(C)cc(/C=N/NC(=O)c2cccc3ncccc23)c1 | 68.5 | –
O=C(N/N=C/c1ccc(F)cc1F)c1ccc2ncccc2c1 | 70.8 | –
COc1ccc(/C=N/NC(=O)c2ccc3ncccc3c2)cc1 | 66.2 | –
COc1ccc(/C=N/NC(=O)c2ccc(NC(=O)Nc3ccc4ncccc4c3)cc2)cc1OC | 1.26 | –
Cc1cccc(/C=N/NC(=O)c2ccc(NC(=O)Nc3cccc4ncccc34)cc2)c1 | 68.6 | –
CCC/C=N/NC(=O)c1ccc(NC(=O)Nc2ccc3ncccc3c2)cc1 | 46.6 | –
O=C(Nc1ccc(C(=O)N/N=C/c2ccc(F)cc2F)cc1)Nc1ccc2ncccc2c1 | 23.2 | –

Structure (SMILES) | inhibition at 50 µM [2] [%] | also measured
O=C(N/N=C/c1ccnc2ccccc12)c1ccc2ncccc2c1 | 55.3 | –
Cc1cc(C)cc(/C=N/NC(=O)c2ccc3ncccc3c2)c1 | 55.2 | –
O=C(Nc1ccc(C(=O)N/N=C/c2cccc(Cl)c2)cc1)Nc1cccc2ncccc12 | 76.2 | IC50 [3]: 15.6 µM; IC50 [4]: 11.4 µM; IC50 [5]: > 50 µM; IC50 [6]: > 50 µM; IC50 [7]: 10.7 µM
COc1ccc(/C=N/NC(=O)c2ccc(NC(=O)Nc3cccc4ncccc34)cc2)cc1 | 72.3 | –
O=C(N/N=C/c1cccs1)c1ccc2ncccc2c1 | 64.9 | –
COc1cc(/C=N/NC(=O)c2ccc(NC(=O)Nc3ccc4ncccc4c3)cc2)cc(OC)c1 | 56.4 | –
O=C(N/N=C/c1ccccc1)c1cccc2ncccc12 | 69.3 | –
Cc1ccc(/C=N/NC(=O)c2ccc3ncccc3c2)cc1 | 76.8 | IC50 [3]: 28.1 µM; IC50 [4]: 22.3 µM; IC50 [5]: 40.6 µM; IC50 [6]: 39.6 µM; IC50 [7]: 25.3 µM
O=C(N/N=C/c1ccco1)c1ccc2ncccc2c1 | 41.8 | –
O=C(Nc1ccc(C(=O)N/N=C/c2ccc(Cl)cc2Cl)cc1)Nc1ccc2ncccc2c1 | 70.2 | –
O=C(N/N=C/c1ccc(F)cc1)c1ccc2ncccc2c1 | 60.1 | –
O=C(Nc1ccc(C(=O)N/N=C/c2ccc(Cl)cc2Cl)cc1)Nc1cccc2ncccc12 | 74.6 | –
Cc1ccc(/C=N/NC(=O)c2cccc3ncccc23)cc1 | 60.5 | –
O=C(N/N=C/c1cc(Cl)ccc1Cl)c1ccc2ncccc2c1 | 64.7 | –
O=C(Nc1ccc(C(=O)N/N=C/c2ccnc3ccccc23)cc1)Nc1ccc2ncccc2c1 | 1.11 | –
O=C(Nc1ccc(C(=O)N/N=C/c2cc(Cl)nc3ccccc23)cc1)Nc1ccc2ncccc2c1 | 65.4 | –
Cc1cc(C)cc(/C=N/NC(=O)c2ccc(NC(=O)Nc3ccc4ncccc4c3)cc2)c1 | 19 | –
CC(C)c1ccc(/C=N/NC(=O)c2ccc(NC(=O)Nc3cccc4ncccc34)cc2)cc1 | 65.9 | –
O=C(Nc1ccc(C(=O)N/N=C/c2ccc(F)cc2F)cc1)Nc1cccc2ncccc12 | 73.3 | –

Structure (SMILES) | inhibition at 50 µM [2] [%] | also measured
COc1ccc(/C=N/NC(=O)c2ccc(NC(=O)Nc3ccc4ncccc4c3)cc2)c(O)c1 | 1.01 | –
O=C(N/N=C/c1ccc(Cl)cc1)c1ccc2ncccc2c1 | 79 | IC50 [3]: 13.9 µM; IC50 [4]: 17.4 µM; IC50 [5]: > 50 µM; IC50 [6]: > 50 µM; IC50 [7]: 22.9 µM
Cc1ccc(F)cc1/C=N/NC(=O)c1ccc2ncccc2c1 | 73.5 | –
Cc1cccc(/C=N/NC(=O)c2ccc(NC(=O)Nc3ccc4ncccc4c3)cc2)c1 | 68.2 | –
COc1cccc(/C=N/NC(=O)c2ccc(NC(=O)Nc3ccc4ncccc4c3)cc2)c1 | 1.99 | –
COc1ccc(/C=N/NC(=O)c2cccc3ncccc23)cc1 | 67.9 | –
O=C(N/N=C/c1ccco1)c1cccc2ncccc12 | 50.9 | –
O=C(N/N=C/c1cc(Cl)nc2ccccc12)c1ccc2ncccc2c1 | 44.1 | –
O=C(N/N=C/c1ccccc1)c1ccc2ncccc2c1 | 64.9 | –
O=C(O)c1ccc(/C=N/NC(=O)c2ccc3ncccc3c2)cc1 | 48 | –
O=C(Nc1ccc(C(=O)N/N=C/c2cc(Cl)ccc2Cl)cc1)Nc1ccc2ncccc2c1 | 75.7 | IC50 [3]: 9.25 µM; IC50 [8]: 8.71 µM; IC50 [4]: 4.77 µM; IC50 [5]: > 50 µM; IC50 [6]: 40.1 µM; IC50 [7]: 8.24 µM
CCOc1ccccc1-n1c(C(C)N2CCN(C(=O)COc3ccc(Cl)cc3)CC2)nc2ccccc2c1=O (stereo not given) [ERASTIN] | – | IC50 [3]: > 30 µM; IC50 [4]: 20.2 µM; IC50 [7]: > 30 µM
COc1ccc(/C=N/NC(=O)c2ccc3ncccc3c2)c(O)c1 | 71.2 | –
O=C(Nc1ccc(C(=O)N/N=C/c2ccc(Cl)cc2)cc1)Nc1ccc2ncccc2c1 | 66.4 | –
O=C(N/N=C/c1cccc(Cl)c1)c1cccc2ncccc12 | 56.9 | –
COc1cccc(/C=N/NC(=O)c2ccc(NC(=O)Nc3cccc4ncccc34)cc2)c1 | 59 | –
Cc1cccc(/C=N/NC(=O)c2ccc3ncccc3c2)c1 | 50.1 | –
CC/C(=C(\c1ccccc1)c1ccc(OCCN(C)C)cc1)c1ccccc1 [TAMOXIFEN] | – | IC50 [9]: 20.8 µM; IC50 [4]: 7.68 µM
